From patent US9695160B2, “Piperazine derivatives for treating disorders” (THE UNIVERSITY OF NOTTINGHAM, priority 2014, dated 2017)
“Also recorded” adds a separate entry of the source. Read-outs that look alike come from different tables or passages of the source. Values belong to the molecule of their own block, whether it stands above or below them.

Columns and labels:
SRPK1 [1] = biological target: T1, SRPK1 (Homo sapiens (Human), UniProt Q96SB4); assay: In vitro kinase assay (Kinase-Glo), SRPK1 inhibition; type: biochemical; settings: Table 2, SRPK1 inhibition assay
T1 sequence (Q96SB4 whole entry): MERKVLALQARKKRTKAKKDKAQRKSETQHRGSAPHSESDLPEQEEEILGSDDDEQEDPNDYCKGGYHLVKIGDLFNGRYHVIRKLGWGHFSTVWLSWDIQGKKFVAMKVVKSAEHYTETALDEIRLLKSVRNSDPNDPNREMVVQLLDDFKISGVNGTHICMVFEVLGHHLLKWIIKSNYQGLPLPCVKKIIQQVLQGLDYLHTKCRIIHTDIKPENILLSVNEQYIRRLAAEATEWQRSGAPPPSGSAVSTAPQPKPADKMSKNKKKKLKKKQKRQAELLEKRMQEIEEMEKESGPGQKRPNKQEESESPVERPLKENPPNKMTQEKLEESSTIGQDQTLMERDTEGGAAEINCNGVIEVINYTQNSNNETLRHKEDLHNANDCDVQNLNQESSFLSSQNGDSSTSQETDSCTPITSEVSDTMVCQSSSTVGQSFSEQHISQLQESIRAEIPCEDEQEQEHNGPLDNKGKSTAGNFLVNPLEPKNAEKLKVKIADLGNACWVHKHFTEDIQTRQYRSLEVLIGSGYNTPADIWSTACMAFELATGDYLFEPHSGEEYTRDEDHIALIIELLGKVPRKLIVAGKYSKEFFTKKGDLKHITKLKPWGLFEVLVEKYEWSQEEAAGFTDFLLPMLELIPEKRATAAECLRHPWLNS
Method: Candidate compounds were serially diluted from 10 μM-0.5 nM and added to the reaction mixture, wells with omitted SRPK1 kinase and omitted compounds were also added as controls. All wells contained one percent DMSO. One micromolar ATP was added, wells minus ATP were used as background controls. The plate was then incubated at 30° C. for 10 minutes. An equal volume of Kinase-Glo (Promega, 25 μl) was added to each well and the plate read for luminescence using an Fluostar Optima (BMG Labtech).

VEGF165b [2] = assay: VEGF165b expression in RPE cells; type: cell-based
[3] = Solubility in water of salt forms; settings: salt forms versus free compounds
SRSF1 localisation [4] = assay: SRSF1 nuclear localisation by immunofluorescence in PC3 cells; type: cell-based
in vitro = settings: human
Text: We also tested the half life of these compounds when exposed to human liver microsomes.

[5] = Scleral permeability, modified Ussing chamber, rabbit eye tissue; settings: rabbit sclera; for detection in the vitreous: 24 hours
Method: (§1) Scleral permeability was measured using a modified Ussing chamber assembly in isotonic assay buffer (pH 7.4). Rabbit or porcine excised eye tissues were mounted in the chambers such that the episcleral side faced the donor chamber and the retinal side faced the receiver chamber. The chambers were filled with equal volumes of assay buffer, with (donor side) or without (receiver side) 1 μg/ml compound. After 4 or 24 hours tissue was removed from the chamber and the receiver side (“vitreous”) sampled. Tissue was dissected into sclera, choroid/RPE, and retina and homogenised.
(§2) After 0, 4 or 24 hours, the fluid from the bottom chamber (vitreous) and the retinal tissue was isolated and compounds purified by acetonitrile extraction and HPLC.

SRSF1 localisation [6] = assay: SRSF1 nuclear localisation by immunofluorescence in MDA-MB231 cells; type: cell-based
[7] = biological target: human ether a go-go related gene (hERG) K+ channel (Homo sapiens (Human), UniProt Q12809); settings: previously described (Gammons et al., 2013); cited from earlier work
Sequence of human ether a go-go related gene (hERG) K+ channel (Q12809 whole entry): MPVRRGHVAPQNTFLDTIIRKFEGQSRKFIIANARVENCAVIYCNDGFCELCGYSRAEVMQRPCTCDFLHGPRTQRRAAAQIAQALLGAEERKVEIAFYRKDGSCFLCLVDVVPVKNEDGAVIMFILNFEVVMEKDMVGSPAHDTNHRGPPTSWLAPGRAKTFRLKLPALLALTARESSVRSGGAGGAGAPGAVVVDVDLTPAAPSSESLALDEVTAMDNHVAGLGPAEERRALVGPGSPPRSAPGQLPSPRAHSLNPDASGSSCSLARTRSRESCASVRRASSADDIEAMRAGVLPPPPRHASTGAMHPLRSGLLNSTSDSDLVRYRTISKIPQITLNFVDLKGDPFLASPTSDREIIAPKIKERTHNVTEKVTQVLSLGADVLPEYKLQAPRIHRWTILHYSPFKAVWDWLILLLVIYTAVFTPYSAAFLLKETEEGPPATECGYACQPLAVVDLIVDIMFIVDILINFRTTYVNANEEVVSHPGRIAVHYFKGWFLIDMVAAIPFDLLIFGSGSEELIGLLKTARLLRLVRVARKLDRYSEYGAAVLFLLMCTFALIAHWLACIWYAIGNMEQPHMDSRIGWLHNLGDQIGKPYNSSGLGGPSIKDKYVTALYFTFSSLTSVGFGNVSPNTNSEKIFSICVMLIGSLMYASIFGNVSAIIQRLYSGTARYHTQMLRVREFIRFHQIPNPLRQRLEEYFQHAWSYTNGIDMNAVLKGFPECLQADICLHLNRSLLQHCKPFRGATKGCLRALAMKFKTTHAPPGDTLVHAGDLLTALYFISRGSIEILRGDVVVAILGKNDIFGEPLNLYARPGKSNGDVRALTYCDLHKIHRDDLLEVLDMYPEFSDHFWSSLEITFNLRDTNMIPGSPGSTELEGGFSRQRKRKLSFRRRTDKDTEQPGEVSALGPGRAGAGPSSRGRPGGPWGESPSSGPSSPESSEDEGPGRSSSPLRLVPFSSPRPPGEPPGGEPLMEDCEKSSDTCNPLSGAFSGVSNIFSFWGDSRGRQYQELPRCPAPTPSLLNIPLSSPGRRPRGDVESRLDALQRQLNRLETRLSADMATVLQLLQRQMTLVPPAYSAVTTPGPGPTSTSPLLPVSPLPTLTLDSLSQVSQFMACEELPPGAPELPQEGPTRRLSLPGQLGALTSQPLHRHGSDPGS

[8] = test system: choroidal neovascularisation; settings: mouse models of CNV, previously shown; cited from earlier work
SRPK1 [9] = biological target: T1, SRPK1; settings: read-out: IC50 of SRPK1 inhibition; previously shown; cited from earlier work
VEGF165b [10] = settings: cited from earlier work
[11] = Scleral permeability, modified Ussing chamber, porcine eye tissue; type: in vitro ADME; settings: porcine eyes
Method: as §1, §2

[12] = type: cell-based
Text: To test whether compounds of Formula (I) are safe to administer to patients we began a basic safety test of these compounds in vitro.

[13] = monthly 0.5 mg, at one year; cited from earlier work

IC50 (SRPK1 [1]): 10000 nM
Molecule: Cc1nnc(C(=O)Nc2cc(C(F)(F)F)ccc2N2CCN(Cc3ccccn3)CC2)o1 [Compound 28]

IC50 (SRPK1 [1]): 1.9 nM
Molecule: CSc1nccc(CN2CCN(c3ccc(C(F)(F)F)cc3NC(=O)c3ccc(C)o3)CC2)n1 [Compound 31]

IC50 (SRPK1 [1]): 5310 nM
Molecule: O=C(Nc1cc(C(F)(F)F)ccc1N1CCN(Cc2ccccn2)CC1)c1nc(-c2ccccc2)no1 [Compound 34]

IC50 (SRPK1 [1]): 183 nM
Molecule: O=C(Nc1cc(C(F)(F)F)ccc1N1CCN(Cc2cnccn2)CC1)c1ccco1 [Compound 43]

IC50 (SRPK1 [1]): 10000 nM
Molecule: Cc1cnc(C(=O)Nc2cc(C(F)(F)F)ccc2N2CCN(Cc3ccccn3)CC2)o1 [Compound 27]

penetration into retina and vitreous [11]: did not penetrate the retina
detection in retina and vitreous ([5]; 4 hrs): could not
detection in the vitreous [5]: detected
Molecule: Cc1ccc(Nc2nccc(N(C)c3ccc4c(C)n(C)nc4c3)n2)cc1S(N)(=O)=O [pazopanib]
accumulation in sclera and RPE/Choroid layer [11]: accumulated in the sclera and in the RPE/Choroid layer

IC50 (SRPK1 [1]): 493 nM
Molecule: CN1CCN(c2ccc(C(F)(F)F)cc2NC(=O)c2nc(-c3ccccc3)c[nH]2)CC1 [Compound 41]

Second part, the molecule before the results:

Molecule: O=C(Nc1cc(C(F)(F)F)ccc1N1CCN(Cc2ccccn2)CC1)c1ccc(-c2ccncc2)o1 [Compound 12]
expression of anti-angiogenic VEGF165b (VEGF165b [2]): dose dependent increase in VEGF165b
solubility in water [3]: more freely soluble in water
SRSF1 cellular localisation (SRSF1 localisation [4]): inhibited cellular localisation
half-life (in vitro; microsomes): 1.02 h
detection in the vitreous [5]: more SPHINX31 than pazopanib
SRSF1 cellular localisation (SRSF1 localisation [6]): inhibited cellular localisation

Molecule: Cc1ccc(C(=O)Nc2cc(C(F)(F)F)ccc2N2CCN(Cc3ccccc3)CC2)o1 [Compound 20]
IC50 (SRPK1 [1]): 4.4 nM
half-life (in vitro; liver microsomes): 0.283 h

Molecule: Cc1ccc(C(=O)Nc2cc(C(F)(F)F)ccc2N2CCOCC2)o1 [SPHINX]
hERG inhibition [7]: did not inhibit hERG; also recorded: do not inhibit hERG
eye drop concentration of maximum anti-angiogenic effect [8]: 10 µg/mL

Molecule: O=C(Nc1cc(C(F)(F)F)ccc1N1CCCCC1)c1ccncc1 [SRPIN340]
IC50 (SRPK1 [9]): 1000 nM
hERG inhibition [7]: do not inhibit hERG
eye drop concentration of maximum anti-angiogenic effect [8]: 10 µg/mL

Molecule: bevicizumab: an anti-VEGF antibody from which Lucentis was derived
binding of VEGF165b versus VEGF165 (VEGF165b [10]): equal potency

Molecule: O=C(Nc1cc(C(F)(F)F)ccc1N1CCN(Cc2cccnc2)CC1)c1ccc(-c2ccncc2)o1 [Compound 13]
solubility in water [3]: more freely soluble in water

Molecule: O=C(Nc1cc(C(F)(F)F)ccc1N1CCN(Cc2ccncc2)CC1)c1ccc(-c2ccncc2)o1 [Compound 14]
solubility in water [3]: more freely soluble in water

Molecule: CN1CCN(c2ccc(C(F)(F)F)cc2NC(=O)c2cccs2)CC1 [Compound 40]
IC50 (SRPK1 [1]): 4690 nM

Molecule: O=C(Nc1cc(C(F)(F)F)ccc1N1CCN(Cc2ccccc2)CC1)c1ccco1 [Compound 19]
IC50 (SRPK1 [1]): 14.1 nM

Molecule: CN(C)CCN1CCN(c2ccc(C(F)(F)F)cc2NC(=O)c2ccc(-c3ccncc3)o2)CC1 [SPHINX7]
doses at which toxic [12]: greater than 10 μM

Molecule: O=C(Nc1cc(C(F)(F)F)ccc1N1CCN(Cc2ccccc2)CC1)c1ccc(-c2cccnc2)o1 [Compound 21]
IC50 (SRPK1 [1]): 4.6 nM
half-life (in vitro; liver microsomes): 1.04 h

B1: Lucentis: a novel humanized anti-VEGF antibody fragment (antibody, chains of the INN, looked up, V domains shown)
VH: EVQLVESGGGLVQPGGSLRLSCAASGYDFTHYGMNWVRQAPGKGLEWVGWINTYTGEPTYAADFKRRFTFSLDTSKSTAYLQMNSLRAEDTAVYYCAKYPYYYGTSHWYFDVWGQGTLVTVSS
VL: DIQLTQSPSSLSASVGDRVTITCSASQDISNYLNWYQQKPGKAPKVLIYFTSSLHSGVPSRFSGSGSGTDFTLTISSLQPEDFATYYCQQYSTVPWTFGQGTKVEIK
modifications: Fab
notes: a novel humanized anti-VEGF antibody fragment
patients who maintained visual acuity (loss of <15 letters) [13]: approximately 95%
patients with improved vision (gain of ≧15 letters) [13]: ≤ 40%
